In patent US10758534B2 (Vertex Pharmaceuticals Incorporated, priority 2014, dated 2020):

Molecular target: T1, F508del (Homo sapiens, UniProt P13569, DEL508-508)
T1 construct: expressed in transfected cells
Assay: Protocol 1: membrane potential optical assay (FLIPR III, voltage sensing dye), identification of potentiator compounds
Type: cell-based
Conditions: Table 3, compounds of Table 1
Method in brief: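 Mouse NIH 3T3 fibroblasts stably expressing F508del, temperature-corrected at 27 °C for 24 h, pretreated with compound, then loaded with voltage-sensing redistribution dye. Forskolin was added in a single step with a chloride gradient (chloride-free gluconate bath; Bath Solution #1 HEPES pH 7.4). Membrane-potential fluorescence read on FLIPR III.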

T1 sequence (P13569 with tags, fused parts or gaps DEL508-508): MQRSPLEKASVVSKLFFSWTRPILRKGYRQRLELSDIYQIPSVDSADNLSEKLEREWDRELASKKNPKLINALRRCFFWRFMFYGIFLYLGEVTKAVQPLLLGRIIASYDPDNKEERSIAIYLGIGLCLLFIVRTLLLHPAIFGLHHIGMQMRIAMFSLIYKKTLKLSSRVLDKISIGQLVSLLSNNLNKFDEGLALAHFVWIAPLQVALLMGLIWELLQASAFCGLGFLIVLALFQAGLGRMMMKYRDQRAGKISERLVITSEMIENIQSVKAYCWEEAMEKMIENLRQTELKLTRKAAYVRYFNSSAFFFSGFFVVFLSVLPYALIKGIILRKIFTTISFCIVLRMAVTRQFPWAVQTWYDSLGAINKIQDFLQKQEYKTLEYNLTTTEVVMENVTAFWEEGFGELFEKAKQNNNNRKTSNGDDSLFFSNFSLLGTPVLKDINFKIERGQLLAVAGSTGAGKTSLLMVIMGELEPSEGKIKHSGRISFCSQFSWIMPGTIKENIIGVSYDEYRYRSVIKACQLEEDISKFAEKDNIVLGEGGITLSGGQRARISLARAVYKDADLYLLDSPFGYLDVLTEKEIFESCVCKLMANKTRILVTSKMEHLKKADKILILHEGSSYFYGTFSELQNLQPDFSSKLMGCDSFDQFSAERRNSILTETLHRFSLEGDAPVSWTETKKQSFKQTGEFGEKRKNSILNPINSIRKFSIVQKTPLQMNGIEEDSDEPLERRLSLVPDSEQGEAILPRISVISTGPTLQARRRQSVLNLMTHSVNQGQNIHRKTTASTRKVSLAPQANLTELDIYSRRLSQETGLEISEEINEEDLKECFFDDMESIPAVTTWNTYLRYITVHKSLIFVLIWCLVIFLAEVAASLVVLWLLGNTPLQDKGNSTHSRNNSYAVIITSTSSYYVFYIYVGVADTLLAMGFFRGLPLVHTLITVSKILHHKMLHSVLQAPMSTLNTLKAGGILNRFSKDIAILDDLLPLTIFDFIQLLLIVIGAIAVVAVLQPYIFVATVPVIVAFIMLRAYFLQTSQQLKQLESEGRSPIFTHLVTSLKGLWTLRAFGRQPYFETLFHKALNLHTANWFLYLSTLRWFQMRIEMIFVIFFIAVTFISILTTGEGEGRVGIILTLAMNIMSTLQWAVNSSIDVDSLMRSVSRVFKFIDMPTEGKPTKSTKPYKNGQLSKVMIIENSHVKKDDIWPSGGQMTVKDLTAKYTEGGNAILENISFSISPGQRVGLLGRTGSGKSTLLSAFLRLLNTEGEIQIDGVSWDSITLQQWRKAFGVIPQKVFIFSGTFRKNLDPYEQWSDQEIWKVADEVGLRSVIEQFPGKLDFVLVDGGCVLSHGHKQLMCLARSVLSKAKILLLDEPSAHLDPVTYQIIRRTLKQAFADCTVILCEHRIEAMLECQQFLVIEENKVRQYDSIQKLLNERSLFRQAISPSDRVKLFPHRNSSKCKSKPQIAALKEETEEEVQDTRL

| Structure (SMILES) | EC30 |
| --- | --- |
| CC(C)(C)c1ccc(C(=O)NS(=O)(=O)c2cccc(N)n2)c(C2CCCC2)n1 [Compound 1219, N-[(6-amino-2-pyridyl)sulfonyl]-6-tert-butyl-2-cyclopentyl-pyridine-3-carboxamide] | ++ (“++” means between 3 uM and 10 uM) |
| Cc1cc(C)c(Oc2nc(-n3cc(C)cn3)ccc2C(=O)NS(=O)(=O)c2cccc(N)n2)c(C)c1 [Compound 1220, N-[(6-amino-2-pyridyl)sulfonyl]-6-(4-methylpyrazol-1-yl)-2-(2,4,6-trimethylphenoxy)pyridine-3-carboxamide] | +++ (“+++” means <3 uM) |
| Cc1cc(C)c(Oc2nc(-c3ccccc3Cl)ccc2C(=O)NS(=O)(=O)c2cccc(N)n2)c(C)c1 [Compound 1221, N-[(6-amino-2-pyridyl)sulfonyl]-6-(2-chlorophenyl)-2-(2,4,6-trimethylphenoxy)pyridine-3-carboxamide] | +++ (“+++” means <3 uM) |
| CCC1CCC(C)N1c1nc(-c2cc(F)cc(OCC(C)C)c2)ccc1C(=O)NS(=O)(=O)c1cccc(N)n1 (centres unmarked) [Compound 1222, N-[(6-amino-2-pyridyl)sulfonyl]-2-(2-ethyl-5-methyl-pyrrolidin-1-yl)-6-(3-fluoro-5-isobutoxy-phenyl)pyridine-3-carboxamide] | +++ (“+++” means <3 uM) |
| Cc1cc(C)c(Oc2nc3c(cc2C(=O)NS(=O)(=O)c2nccnc2N)CCCC3(C)C)c(C)c1 [Compound 1223, N-(3-aminopyrazin-2-yl)sulfonyl-8,8-dimethyl-2-(2,4,6-trimethylphenoxy)-6,7-dihydro-5H-quinoline-3-carboxamide] | +++ (“+++” means <3 uM) |
| CC(C)COc1cncc(-c2ccc(C(=O)NS(=O)(=O)c3cccc(N)n3)c(N3[C@H](C)CC[C@@H]3C)n2)c1 [Compound 1224, N-[(6-amino-2-pyridyl)sulfonyl]-2-[(2S,5R)-2,5-dimethylpyrrolidin-1-yl]-6-(5-isobutoxy-3-pyridyl)pyridine-3-carboxamide] | ++ (“++” means between 3 uM and 10 uM) |
| COc1ccc(OC)c(-c2ccc(C(=O)NS(=O)(=O)c3cccc(N)n3)c(Oc3c(C)cc(C)cc3C)n2)c1 [Compound 1225, N-[(6-amino-2-pyridyl)sulfonyl]-6-(2,5-dimethoxyphenyl)-2-(2,4,6-trimethylphenoxy)pyridine-3-carboxamide] | +++ (“+++” means <3 uM) |
| Cc1cc(C)c(Oc2nc(C3(C)CC3)ccc2C(=O)NS(=O)(=O)c2ccc[nH]c2=O)c(C)c1 [Compound 1226, 6-(1-methylcyclopropyl)-N-[(2-oxo-1H-pyridin-3-yl)sulfonyl]-2-(2,4,6-trimethylphenoxy)pyridine-3-carboxamide] | +++ (“+++” means <3 uM) |
| CC(C)COc1cc(F)cc(-c2ccc(C(=O)NS(=O)(=O)c3cccc(N)n3)c(OC3CC4CCC3C4)n2)c1 (centres unmarked) [Compound 1227, N-[(6-amino-2-pyridyl)sulfonyl]-6-(3-fluoro-5-isobutoxy-phenyl)-2-norbornan-2-yloxy-pyridine-3-carboxamide] | +++ (“+++” means <3 uM) |
| Cc1cc(C)c(Oc2nc(-c3ccc(CN)cc3)ccc2C(=O)NS(=O)(=O)c2cccc(N)n2)c(C)c1 [Compound 1228, 6-[4-(aminomethyl)phenyl]-N-[(6-amino-2-pyridyl)sulfonyl]-2-(2,4,6-trimethylphenoxy)pyridine-3-carboxamide] | ++ (“++” means between 3 uM and 10 uM) |
| CC(C)COc1cc(F)cc(-c2ccc(C(=O)NS(=O)(=O)c3cccc(N)n3)c(OCC3CC3)n2)c1 [Compound 1229, N-[(6-amino-2-pyridyl)sulfonyl]-2-(cyclopropylmethoxy)-6-(3-fluoro-5-isobutoxy-phenyl)pyridine-3-carboxamide] | +++ (“+++” means <3 uM) |
| CC(C)Oc1ccc(-c2ccc(C(=O)NS(=O)(=O)c3cccc(N)n3)c(N3CCC[C@@H]3C(F)(F)F)n2)cn1 [Compound 1230, N-[(6-amino-2-pyridyl)sulfonyl]-6-(6-isopropoxy-3-pyridyl)-2-[(2R)-2-(trifluoromethyl)pyrrolidin-1-yl]pyridine-3-carboxamide] | ++ (“++” means between 3 uM and 10 uM) |
| Cc1ccc(-c2nc3c(cc2C(=O)NS(=O)(=O)c2cccc(N)c2)CCCC3(C)C)cc1 [Compound 1231, (3-aminophenyl)sulfonyl-[8,8-dimethyl-2-(p-tolyl)-6,7-dihydro-5H-quinoline-3-carbonyl]azanide] | +++ (“+++” means <3 uM) |
| Cc1cc(C)c(Oc2nc(C(C)C)ccc2C(=O)NS(=O)(=O)c2cccc(N)n2)c(C)c1 [Compound 1232, N-[(6-amino-2-pyridyl)sulfonyl]-6-isopropyl-2-(2,4,6-trimethylphenoxy)pyridine-3-carboxamide] | +++ (“+++” means <3 uM) |
| Cc1cc(C)c(Oc2ncc(Cc3ccccc3)cc2C(=O)NS(=O)(=O)c2cccc(N)n2)c(C)c1 [Compound 1233, N-[(6-amino-2-pyridyl)sulfonyl]-5-benzyl-2-(2,4,6-trimethylphenoxy)pyridine-3-carboxamide] | ++ (“++” means between 3 uM and 10 uM) |
| CC(C)COc1cc(-c2ccc(C(=O)NS(=O)(=O)c3ccn[nH]3)c(N3[C@H](C)CC[C@@H]3C)n2)ccc1Cl [Compound 1234, 6-(4-chloro-3-isobutoxy-phenyl)-2-[(2S,5R)-2,5-dimethylpyrrolidin-1-yl]-N-(1H-pyrazol-5-ylsulfonyl)pyridine-3-carboxamide] | +++ (“+++” means <3 uM) |
| COc1cccc(-c2ccc(C(=O)NS(=O)(=O)c3ccn[nH]3)c(N3[C@H](C)CC[C@@H]3C)n2)n1 [Compound 1236, 2-[(2S,5R)-2,5-dimethylpyrrolidin-1-yl]-6-(6-methoxy-2-pyridyl)-N-(1H-pyrazol-5-ylsulfonyl)pyridine-3-carboxamide] | ++ (“++” means between 3 uM and 10 uM) |
| Cc1cc(C)c(CN2Cc3ccccc3C2(C)C(=O)NS(=O)(=O)c2ccc[nH]c2=O)c(C)c1 (centres unmarked) [Compound 1237, 1-methyl-N-[(2-oxo-1H-pyridin-3-yl)sulfonyl]-2-[(2,4,6-trimethylphenyl)methyl]isoindoline-1-carboxamide] | ++ (“++” means between 3 uM and 10 uM) |
| CC(C)COc1cc(F)cc(-c2ccc(C(=O)NS(=O)(=O)c3cccc(N)n3)c(OC(C)C3CCC3)n2)c1 (centres unmarked) [Compound 1238, N-[(6-amino-2-pyridyl)sulfonyl]-2-(1-cyclobutylethoxy)-6-(3-fluoro-5-isobutoxy-phenyl)pyridine-3-carboxamide] | +++ (“+++” means <3 uM) |
| Cc1ccc(Oc2nc3c(cc2C(=O)NS(=O)(=O)c2nccnc2N)CCCC3(C)C)c(C)c1 [Compound 1239, N-(3-aminopyrazin-2-yl)sulfonyl-2-(2,4-dimethylphenoxy)-8,8-dimethyl-6,7-dihydro-5H-quinoline-3-carboxamide] | +++ (“+++” means <3 uM) |
| CC(C)Oc1ccc(-c2ccc(C(=O)NS(=O)(=O)c3cccnc3N)c(N3C[C@H](C)CC3(C)C)n2)cn1 [Compound 1240, N-[(2-amino-3-pyridyl)sulfonyl]-6-(6-isopropoxy-3-pyridyl)-2-[(4R)-2,2,4-trimethylpyrrolidin-1-yl]pyridine-3-carboxamide] | +++ (“+++” means <3 uM) |
| CC(C)COc1cc(F)cc(-c2ccc(C(=O)NS(=O)(=O)c3cccc(N)n3)c(N3[C@@H](C)CCC3(C)C)n2)c1 [Compound 1241, N-[(6-amino-2-pyridyl)sulfonyl]-6-(3-fluoro-5-isobutoxy-phenyl)-2-[(5S)-2,2,5-trimethylpyrrolidin-1-yl]pyridine-3-carboxamide] | +++ (“+++” means <3 uM) |
| CC1CN(c2nc(-c3ccnn3C(C)C)ccc2C(=O)NS(=O)(=O)c2cccc(N)n2)C(C)(C)C1 (centres unmarked) [Compound 1242, N-[(6-amino-2-pyridyl)sulfonyl]-6-(2-isopropylpyrazol-3-yl)-2-(2,2,4-trimethylpyrrolidin-1-yl)pyridine-3-carboxamide] | +++ (“+++” means <3 uM) |
| Cc1cccc(C)c1Oc1nc(C(C)(C)C)ccc1C(=O)NS(=O)(=O)c1cccc(N)n1 [Compound 1243, N-[(6-amino-2-pyridyl)sulfonyl]-6-tert-butyl-2-(2,6-dimethylphenoxy)pyridine-3-carboxamide] | +++ (“+++” means <3 uM) |
| Cc1cc(C)c(Oc2nc(-c3cccc(F)c3F)ccc2C(=O)NS(=O)(=O)c2cccc(N)n2)c(C)c1 [Compound 1244, N-[(6-amino-2-pyridyl)sulfonyl]-6-(2,3-difluorophenyl)-2-(2,4,6-trimethylphenoxy)pyridine-3-carboxamide] | +++ (“+++” means <3 uM) |
| COC1CCN(c2nc(-c3cc(F)cc(OCC(C)C)c3)ccc2C(=O)NS(=O)(=O)c2ccn[nH]2)CC1 [Compound 1245, 6-(3-fluoro-5-isobutoxy-phenyl)-2-(4-methoxy-1-piperidyl)-N-(1H-pyrazol-5-ylsulfonyl)pyridine-3-carboxamide] | + (“+” means greater than 10 uM) |
| Cc1ccc(Oc2nc3c(cc2C(=O)NS(=O)(=O)c2cc[nH]n2)CCCC3(C)C)c(C)c1 [Compound 1246, 2-(2,4-dimethylphenoxy)-8,8-dimethyl-N-(1H-pyrazol-3-ylsulfonyl)-6,7-dihydro-5H-quinoline-3-carboxamide] | +++ (“+++” means <3 uM) |
| CC1CN(c2nc(-c3ccc(OC(C)C)nc3)ccc2C(=O)NS(=O)(=O)c2cccc(N)n2)C(C)(C)C1 (centres unmarked) [Compound 1247, N-[(6-amino-2-pyridyl)sulfonyl]-6-(6-isopropoxy-3-pyridyl)-2-(2,2,4-trimethylpyrrolidin-1-yl)pyridine-3-carboxamide] | +++ (“+++” means <3 uM) |
| CC(C)Oc1ccc(-c2ccc(C(=O)NS(=O)(=O)c3cccc(N)n3)c(N3CCC[C@H]3C(F)(F)F)n2)cn1 [Compound 1248, N-[(6-amino-2-pyridyl)sulfonyl]-6-(6-isopropoxy-3-pyridyl)-2-[(2S)-2-(trifluoromethyl)pyrrolidin-1-yl]pyridine-3-carboxamide] | +++ (“+++” means <3 uM) |
